# “And” between values parts separate entries of the source, which are not always exact repeats. Equal entries are not always repeated. The source made the active and inactive calls. No cut-off for these calls is given here.
# Experiments:
# [1] = biological target: T1, 5-hydroxytryptamine receptor 2C (Homo sapiens) (UniProt P28335); experiment: Agonist activity at 5-HT2CR (unknown origin) stably expressed in HEK293 cells at 30 to 100 uM measured after 1 hr by fluorescence based Ca2+/Fluo-4 assay; type: cell-based; settings: filed as agonist, dose 30-100 µM
# T1 sequence (whole entry): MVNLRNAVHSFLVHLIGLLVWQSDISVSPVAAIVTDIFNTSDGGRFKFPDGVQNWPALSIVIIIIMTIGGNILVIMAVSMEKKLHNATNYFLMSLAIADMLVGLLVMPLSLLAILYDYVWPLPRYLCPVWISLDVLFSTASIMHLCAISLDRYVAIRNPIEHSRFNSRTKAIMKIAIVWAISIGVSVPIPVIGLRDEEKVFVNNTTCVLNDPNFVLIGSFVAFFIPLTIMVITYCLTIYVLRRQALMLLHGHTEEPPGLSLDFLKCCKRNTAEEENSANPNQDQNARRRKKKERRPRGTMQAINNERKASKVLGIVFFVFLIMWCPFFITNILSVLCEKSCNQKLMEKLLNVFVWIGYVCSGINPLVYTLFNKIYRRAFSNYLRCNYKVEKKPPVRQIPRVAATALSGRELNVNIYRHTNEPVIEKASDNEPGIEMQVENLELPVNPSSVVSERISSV
# [2] = biological target: 5-hydroxytryptamine receptor 2A (Homo sapiens, UniProt P28223); experiment: Agonist activity at 5-HT2AR (unknown origin) stably expressed in HEK293 cells measured after 1 hr by fluorescence based Ca2+/Fluo-4 assay; type: cell-based
# [3] = biological target: T1, 5-hydroxytryptamine receptor 2C (Homo sapiens); experiment: Agonist activity at 5-HT2CR (unknown origin) stably expressed in HEK293 cells at 10 to 100 uM measured after 1 hr by fluorescence based Ca2+/Fluo-4 assay; type: cell-based; settings: filed as agonist, dose 10-100 µM
# [4] = biological target: T1, 5-hydroxytryptamine receptor 2C (Homo sapiens); experiment: Agonist activity at 5-HT2CR (unknown origin) stably expressed in HEK293 cells assessed as maximal response measured after 1 hr by fluorescence based Ca2+/Fluo-4 assay relative to control; type: cell-based; settings: filed as agonist
# [5] = biological target: T2, 5-hydroxytryptamine receptor 2C (Homo sapiens, UniProt P28335)
# T2 sequence (P28335 whole entry): T1 sequence (whole entry)
# Description: Agonist activity at 5-HT2CR (unknown origin) stably expressed in HEK293 cells measured after 1 hr by fluorescence based Ca2+/Fluo-4 assay
# Sequence of 5-hydroxytryptamine receptor 2A (P28223 whole entry): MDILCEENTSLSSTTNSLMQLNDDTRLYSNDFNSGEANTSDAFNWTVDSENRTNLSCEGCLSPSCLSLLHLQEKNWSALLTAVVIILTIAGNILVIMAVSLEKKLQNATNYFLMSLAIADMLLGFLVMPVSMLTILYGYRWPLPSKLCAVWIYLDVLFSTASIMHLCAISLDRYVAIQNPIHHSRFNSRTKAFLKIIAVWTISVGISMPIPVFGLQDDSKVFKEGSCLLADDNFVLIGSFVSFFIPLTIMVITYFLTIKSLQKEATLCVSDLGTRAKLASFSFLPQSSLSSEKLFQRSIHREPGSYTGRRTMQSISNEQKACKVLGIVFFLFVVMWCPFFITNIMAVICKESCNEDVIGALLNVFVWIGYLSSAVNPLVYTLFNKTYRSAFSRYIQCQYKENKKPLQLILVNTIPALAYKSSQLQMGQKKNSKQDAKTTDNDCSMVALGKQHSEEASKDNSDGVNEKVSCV
SMILES,Activity [1],EC50 ([2]; read-out: EC50),EC50 ([2]; read-out: pEC50 (converted)),Activity [3],Rmax [4],EC50 [5]
COc1cc(CC2CCCC(c3ccccc3O)N2)c(OC)cc1C#N (centres undefined),Active,2700 nM,3550 nM,,,
COc1cc(C[C@@H]2CCC[C@@H](c3ccccc3O)N2)c(OC)cc1C#N,,91 nM,,Active,,
COc1cc(CCNCc2ccccc2O)c(OC)cc1C#N,,,,,78%,178 nM and 170 nM
COc1cc(C[C@H]2CCC[C@H](c3ccccc3O)N2)c(OC)cc1C#N,,930 nM,,Active,,

# — ChEMBL document CHEMBL5252620, “Introducing Conformational Restraints on 25CN-NBOH: A Selective 5-HT2A Receptor Agonist” (ACS Med Chem Lett, 2023)
